One data set is described as follows: Plasma pharmacokinetics. In kind it is in vivo, human. To be noted: for AUC / Cmax / Tmax: human, plasma, oral; for AUC: AUCtau [mean ± standard deviation]; for Cmax: Cmax [mean ± standard deviation]; for Tmax: Tmax [median (range)].
The subject of the next data set is patients. To be noted: cited from earlier work; for incidence of hyperglycemia: single agent.
Where [1] appears, read: 200 mg encorafenib at steady state, dual combination.
[2] abbreviates: 200 mg encorafenib in the presence of 300 mg alpelisib, steady state, triple combination.
[3] abbreviates: 300 mg alpelisib at steady state, triple combination.

Read-outs that look alike come from different tables or passages of the source.

The AUC is the area under the concentration-time curve, a measure of exposure. For orientation: Cmax means the maximum level reached in the sampled fluid or tissue. Broadly, the Tmax is the time from dosing to the highest level.

On to `COC(=O)N[C@@H](C)CNc1nccc(-c2cn(C(C)C)nc2-c2cc(Cl)cc(NS(C)(=O)=O)c2F)n1` [encorafenib], for which the “exposure vs dual-combination therapy group” value in the data set “Plasma pharmacokinetics” (200 mg encorafenib in the presence of 100 mg alpelisib) is “similar”. Moreover, in “Plasma pharmacokinetics” (dual-combination therapy group), the “drug–drug interaction between encorafenib and cetuximab” value was “No evidence of drug–drug interaction”. Moreover, in “Plasma pharmacokinetics” (setting [1]), the AUC is 7170 ± 2890 ng·h/mL, the Cmax is 1430 ± 824 ng/mL and the Tmax amounted to 2 h. Also, in the data set “Plasma pharmacokinetics” (setting [2]), the AUC is 12900 ng·h/mL, the Cmax amounted to 2390 ± 2080 ng/mL and the time to peak (Tmax) is 3 h. Also, the “single agent MTD/RP2D” value with patients (first-in-human study) was 450 mg.
`Cc1nc(NC(=O)N2CCC[C@H]2C(N)=O)sc1-c1ccnc(C(C)(C)C(F)(F)F)c1` [alpelisib]: in the data set “Plasma pharmacokinetics” (setting [3]), the AUC is 25100 ng·h/mL and the maximum concentration (Cmax) was determined as 2740 ± 520 ng/mL. Moreover, the “exposure affected by encorafenib and cetuximab” value in the data set “Plasma pharmacokinetics” (triple-combination therapy group) is listed as “not affected”. The incidence of hyperglycemia in the data set with patients (all grade, patients with solid tumors) is 47%. Further, the incidence of hyperglycemia in the data set on patients (grade 3/4, patients with solid tumors) is given as 24%.

Source of the values: article PMC5546207 (Cancer discovery, 2017).
